Legend:
Wistar rats [1] = assay: Antidiabetic activity by starch loaded model; type: in vivo, rat; details: test compounds 100 mg/kg, Acarbose 10 mg/kg oral
Excerpt: Experimental Animals—Wistar rats of either sex were used for the present study. Animals selected for use in the study were of uniform age and body weight. A minimum of 40 rats, from which eventually 20 rats were selected. Their body weights were in the range of 150-180 gm. The health status of the animals was ascertained by a veterinary surgeon. […] Animals were acclimatized for at least two weeks prior to start of the study. The animals were provided with pellet diet manufactured by NIN, HYDERABAD, India and drinking water adlibitum.
Compound Preparation The required quantity of the synthetic compounds were weighed and made suspension with gum acacia (2%). The test compounds were administered to all rats by per oral route. Acarbose suspension was also prepared in gum acasia suspension and given by oral route.
Antidiabetic activity by Starch model: The method of Rao et al., 2009;Tiwari et al was employed. Animals were fasted over night (12 hrs). Basal blood glucose levels were estimated for all the animals prior to dosing in test and standard groups. This was designated as “0” min reading. […] After test compounds administration animals in all three groups received Starch aqueous solution (2 gm/kg body weight). Blood glucose levels were monitored at 30, 60, 90 and 120 min after the administration of Starch in all the three groups. The percentage of increase in, blood glucose levels was calculated with respect to the control group at each time point.

nitric oxide = assay: Nitric oxide inhibition assay, sodium nitroprusside method; details: Griess reagent, vs control
IL-1β = IL-1β in rat paw tissue and serum, FCA model (ELISA); type: in vivo; parameters: % Inhibition (IL-1 Beta) / Percentage of Inhibition (IL-1 Beta): concentration or dose not given beside the values; details: for % Inhibition (IL-1 Beta): FCA model
Description: (§1) Group I—Normal Control; Group II—Arthritic control; Group III—Arthritic rats administered with Synthetic compound BN-4; Group IV—arthritic rats administered with compound BN-14; Group V—arthritic rats administered with BN-16; Group VI—arthritic rats administered with standard drug indomethacin. Administration of test compounds and indomethacin started on the same day of adjuvant injection at the dose of 100 and 2.5 mg/kg respectively. The test and indomethacin doses continued up to 21 days in FCA induced model and 24 days in collagen induced model. During the study period the paw volumes were measured on 5th, 12th, 18th and 21 st days and the weight of the animals was also recorded at different time intervals. At each time point the percentage of inhibition of paw volume was calculated with reference to mean paw volume of control group In FCA model, animals were sacrificed on 21st day by cervical dislocation. Before sacrificing the animals, blood was collected and used for estimation of total leukocyte count, TNF-α and IL-1β.
In FCA induced study paw tissues were collected on termination day and estimated TNF-α and IL-1β levels for all the groups by ELISA method.
On termination day blood samples were collected and serum was used for the estimation of Both TNF-α and IL-1β levels in FCA and Collagen induced studies. Both the parameters were determined using ELISA kits. TNF-α could not be determined as their expression is very less in serum samples of the rats in the two models studied, where as IL-1β expression in serum was good. Daily treatment of synthetic compounds by oral administration was effective in reducing the serum IL-1β levels (P<0.01) when compared with arthritic control group.

Wistar rats [2] = assay: Freund's complete adjuvant (FCA) induced arthritis; type: in vivo, rat; details: BN compounds 100 mg/kg; for Body weight index, 21st DAY / Body weight index, 1st DAY: FCA study; for Paw volume, 5th Day / Paw volume, 12th Day / Paw volume, 18th Day / Paw volume, 21st Day: in mL (unit assumed); for Body weight index, 1st DAY: indomethacin 2.5 mg/kg; for Total WBC count: termination day, FCA model, Indomethacin 2.5 mg/kg
Description: Induction of Arthritis: Arthritis was induced by injecting Freund's complete adjuvant (FCA. Required quantity of FCA was weighed and suspension made with paraffin oil (DIFCO Laboratories) and administered at dose of 0.5 mg/rat in subplantar region of the right hind paw. After 7 days, a booster injection was given to all animals to hind paws.
Experimental Design Animals were divided into 6 groups of 6 rats each and were designated as:
as §1
Clinical Assessment of Adjuvant arthritis: Rats were examined for visual appearance of arthritis and the lesion of erythema and inflammation of periarticular tissues on 14th day, 18th day and on 21st day. Arthritis scoring scale as follows:
2=Mild swelling and erythema of the limb 3=Gross swelling and erythema of the limb 4=Gross deformity and inability to use the limb
The arthritis score of each rat was the sum of the scores of both hind limbs and maximum score was being 8 for each rat.

yeast α-glucosidase = target: T1, yeast α-glucosidase (Saccharomyces cerevisiae, UniProt P53341); assay: In-vitro yeast α-glucosidase inhibition assay; type: biochemical, bakers yeast
T1 construct: α-Glucosidase [(EC 3.2.1.20) Type I: from bakers yeast]
Excerpt: Chemicals: α-Glucosidase [(EC 3.2.1.20) Type I: from bakers yeast], rat intestinal acetone powder (as a source of crude intestinal α-glucosidase), α-amylase [EC 3.2.1.1) Type VI B: from porcine pancreas], p-nitrophenyl α-D-glucopyranoside, 3,5-dinitro salicylic acid, soluble potato starch and 1-deoxyrojirimycine, were purchased from Sigma Chemical Co., St Louis, Mo., USA. Other chemicals of analytical grade were procured from indigenous manufacturers.
In-vitro a-Glucosidase Inhibition Assay: Yeast and intestinal a-glucosidase inhibitory activities were determined as per reported methods (Babu et al., 2004; Mc Dougall et al., 2005). Rat intestinal acetone powder in normal saline (100% w/v) was sonicated properly and the supernatant was used as a source of crude intestinal a-glucosidase after centrifugation. In brief, 20 μl, of test samples (100 mg/ml DMSO solution) were reconstituted in 100 μl of 100 mM-Phosphate buffer (pH 6.8) in a 96-well microplate and incubated with 50 μl yeast a-glucosidase (0.76 μ/ml in same buffer) or crude intestinal a-glucosidase for 5 min before 50-μl substrate (5 mM, […] prepared in same buffer) was added. Release of p-nitrophenyol was measured at 405 nm spectrophotometrically (Spectra Mas Plus 384, Molecular Device corporation, Sunnyvale, Calif., USA) 5 min after incubation with substrate, individual blank for test samples were prepared to correct background absorbance where the substrate was replaced with 50 μl of buffer. The control sample contained 20 μl DMSO in place of test samples. The percentage of enzyme inhibition was calculated as (A−B/A)×100 where A is represents the absorbance of the control without test samples, and B represents the absorbance in the presence of test samples. […] The IC50 values were calculated by applying logarithmic regression analysis from the mean inhibitory values.

[3] = paw tissue, termination day (21st day), BN compounds 100 mg/kg, indomethacin 2.5 mg/kg
[4] = rat serum, termination day, FCA induced arthritis

T1 sequence (P53341 whole entry): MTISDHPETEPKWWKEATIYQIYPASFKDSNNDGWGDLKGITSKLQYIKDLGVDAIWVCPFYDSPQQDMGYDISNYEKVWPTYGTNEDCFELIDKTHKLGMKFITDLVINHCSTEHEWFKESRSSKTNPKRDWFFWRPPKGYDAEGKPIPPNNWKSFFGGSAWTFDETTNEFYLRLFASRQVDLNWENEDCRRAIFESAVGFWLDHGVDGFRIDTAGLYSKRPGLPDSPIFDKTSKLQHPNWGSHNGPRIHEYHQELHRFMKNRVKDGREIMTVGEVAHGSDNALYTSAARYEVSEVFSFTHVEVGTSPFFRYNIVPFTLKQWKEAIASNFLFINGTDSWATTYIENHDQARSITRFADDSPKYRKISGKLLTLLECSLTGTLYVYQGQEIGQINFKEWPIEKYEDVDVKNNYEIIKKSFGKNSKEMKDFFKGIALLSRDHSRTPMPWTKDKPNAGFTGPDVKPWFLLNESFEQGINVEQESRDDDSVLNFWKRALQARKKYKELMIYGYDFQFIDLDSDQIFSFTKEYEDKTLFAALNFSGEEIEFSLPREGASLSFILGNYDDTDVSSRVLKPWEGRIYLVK

Compound	NO release in Sodium Nitroprusside method (nitric oxide)	IL-1 Beta concentration (IL-1β; [3])	% Inhibition (IL-1 Beta) (IL-1β; paw tissue, termination day) [%]	IL-1 Beta concentration (IL-1β; [4])	Percentage of Inhibition (IL-1 Beta) (IL-1β; [4]) [%]	% Of inhibition, 5th Day (Wistar rats [2]; indomethacin 2.5 mg/kg daily) [%]	% Of inhibition, 12th Day (Wistar rats [2]; indomethacin 2.5 mg/kg daily) [%]	Body weight index, 21st DAY (Wistar rats [2]; indomethacin 2.5 mg/kg daily)	Paw volume, 5th Day (Wistar rats [2]; indomethacin 2.5 mg/kg daily)	Paw volume, 12th Day (Wistar rats [2]; indomethacin 2.5 mg/kg daily)	Paw volume, 18th Day (Wistar rats [2]; indomethacin 2.5 mg/kg daily)	Paw volume, 21st Day (Wistar rats [2]; indomethacin 2.5 mg/kg daily)	Body weight index, 1st DAY (Wistar rats [2])	Total WBC count (Wistar rats [2])	also measured
Nc1c2c(nc3sc4c(c13)CCC4)CCCC2 [BN-14, 2,3,6,7,8,9-Hexahydro-1H-cyclopenta[4,5]thieno[2,3-b]quinolin-10-amine]	significantly inhibited	113.0 ± 26.8 ng/gm of tissue	38.49 ± 14.97	50.83 ± 6.11 Pg/ml of tissue	22.17 ± 6.51	19.47 ± 1.38	37.90 ± 4.12	201.51 ± 6.61	1.92 ± 0.03	1.54 ± 0.10	1.51 ± 0.14	1.40 ± 0.02	158.02 ± 2.51	19.70±0.66	% Increase in glucose, 30 min (Wistar rats [1]; 30 min after starch): 37.65%; Blood glucose level, 30 min (Wistar rats [1]; 30 min after starch, in mg/dL (unit assumed)): 103.83; % Increase in glucose, 60 min (Wistar rats [1]; 60 min after starch): 36.02%; Blood glucose level, 60 min (Wistar rats [1]; 60 min after starch, in mg/dL (unit assumed)): 102.80; % Increase in glucose, 90 min (Wistar rats [1]; 90 min after starch): 45.00%; Blood glucose level, 90 min (Wistar rats [1]; 90 min after starch, in mg/dL (unit assumed)): 109.33; % Increase in glucose, 120 min (Wistar rats [1]; 120 min after starch): 32.21%; Blood glucose level, 120 min (Wistar rats [1]; 120 min after starch, in mg/dL (unit assumed)): 99.83; Blood glucose level, 0 min (Wistar rats [1]; basal, prior to dosing, starch 2 gm/kg, in mg/dL (unit assumed)): 75.5; Yeast α-glucosidase enzyme inhibitory activity (in words) (yeast α-glucosidase): strong significant inhibitory activity; inhibition at 39.063 µg/mL (yeast α-glucosidase; yeast α-glucosidase, 0.039063 mg/ml, read-out: % Inhibition (Mean ± S.E)): 19.6%; inhibition at 78.125 µg/mL (yeast α-glucosidase; yeast α-glucosidase, 0.078125 mg/ml, read-out: % Inhibition (Mean ± S.E)): 25.84 ± 0.13%; inhibition at 156.25 µg/mL (yeast α-glucosidase; yeast α-glucosidase, 0.15625 mg/ml, read-out: % Inhibition (Mean ± S.E)): 33.31 ± 0.04%; inhibition at 312.5 µg/mL (yeast α-glucosidase; yeast α-glucosidase, 0.3125 mg/ml, read-out: % Inhibition (Mean ± S.E)): 42.8 ± 1.38%; inhibition at 625 µg/mL (yeast α-glucosidase; yeast α-glucosidase, 0.625 mg/ml, read-out: % Inhibition (Mean ± S.E)): 50.3 ± 3.39%; inhibition at 1250 µg/mL (yeast α-glucosidase; yeast α-glucosidase, 1.25 mg/ml, read-out: % Inhibition (Mean ± S.E)): 63.8 ± 1.71%; inhibition at 2500 µg/mL (yeast α-glucosidase; yeast α-glucosidase, 2.5 mg/ml, read-out: % Inhibition (Mean ± S.E)): 67.8 ± 1.18%; inhibition at 5000 µg/mL (yeast α-glucosidase; yeast α-glucosidase, 5 mg/ml, read-out: % Inhibition (Mean ± S.E)): 72.2 ± 1.87%
Nc1c2c(nc3sc4c(c13)CCC4)CCCCC2 [BN-16, 1,2,3,6,7,8,9,10-Octahydrocyclohepta[b]cyclopenta[4,5]thieno[3,2-e]pyridine-11-amine]	significantly inhibited	68.87 ± 21.1 ng/gm of tissue	40.51 ± 9.56	17.0 ± 4.50 Pg/ml of tissue	32.48 ± 6.22	23.95 ± 4.49	39.11 ± 1.68	206.38 ± 4.76	1.81 ± 0.11	1.51 ± 0.10	1.64 ± 0.13	1.59 ± 0.09	157.85 ± 2.08	17.3±1.63	% Of inhibition, 18th Day (Wistar rats [2]; indomethacin 2.5 mg/kg daily): 37.53 ± 09.04 %

Source: US20110269790A1, “NOVEL THIENOPYRIDINES AS PHARMACOLOGICALLY ACTIVE AGENTS” (priority 2009, published 2011)
